# Measured values from US20190255048A1, “PYRIMIDINE COMPOUND OR SALT THEREOF IN APPLICATION FOR MANUFACTURING PHARMACEUTICAL PRODUCT FOR PREVENTING AND/OR TREATING FLT3-RELATED DISEASE OR DISORDER” (SHENZHEN HAIBIN PHARMACEUTICAL CO., LTD, priority 2016, published 2019).
# How the values were obtained:
# [1] = system: subcutaneous xenograft tumor of human MV-4-11; test: Therapeutic effects on subcutaneous xenograft tumor of human MV-4-11 in nude mice; type: in vivo, BALB/cA-nude mice; settings: MV-4-11 subcutaneous xenograft, 15 mg/kg intraperitoneal injection, 3 times a day for 21 days
# Protocol: Preparation of test samples: all samples were prepared with 5% anhydrous ethanol, 5% Cremophor EL and 90% physiological saline.
# Animals: BALB/cA-nude mice, 6-7 weeks, female ♀ purchased from Shanghai Lingchang Biotechnology Co., Ltd. Production license number was SC×K(Hu)2013-0018; animal certification number was 2013001810589.
# Feeding environment: SPF Level.
# Experiment steps: human acute myeloid leukemia cells MV-4-11 were inoculated subcutaneously in nude mice, after the tumor grows to 80-150 mm^3, animals were randomly divided into groups with 6 mice each group. The dosage was 15 mg/kg, the drugs were administrated by intraperitoneal injection, 3 times a day for 21 days. The volume of tumor was measured, the weight of mouse was weighed and the data were recorded.
# The formula for calculating the volume of tumor (V) was: […]
# Wherein a and b represented length and width respectively.
# T/C (%)=(T−T0)/(C−C0)×100
# Wherein T and C were the volume of tumor when the experiment was completed; T0 and C0 were the volume of tumor when the experiment was started.
# The inhibited rate of tumor was calculated, the results were shown as Table 4.
# [2] = system: human acute myeloid leukemia cell strain MOLM-13 (expressing FLT3/ITD mutant gene and wild-type FLT3 gene); test: Effects on proliferation of tumor cells (Cell Titer-Glo), MOLM-13; type: cell-based; settings: MOLM-13, incubated for 72 hours
# Text: (§1) This example tested the effects of the compounds of the present invention (the compound shown in Formula (I), hydrochloride salt, phosphate, mesylate, lactate, acetate, sulphate, and hydrobromide thereof prepared in EXAMPLES 1-8 respectively) on proliferation of tumor cells, and further evaluated the inhibitory effects of the compounds on proliferation of tumor cells and selectivity of the compounds in inhibiting proliferation of tumor cells.
# (2) human acute myeloid leukemia cell strain MOLM-13 (expressing FLT3/ITD mutant gene and wild-type FLT3 gene);
# (§2) The compounds at different concentration (0.000508 μM, 0.00152 μM, 0.00457 μM, 0.0137 μM, 0.0411 μM, 0.123 μM, 0.370 μM, 1.11 μM, 3.33 μM, 10 μM in DMSO) were added to the above-mentioned cells respectively, incubated for 72 hours, Cell Titer-Glo (Promega, United States of America) Chemiluminescence Kit was used to quantify ATP in living cells to detect the number of living cells, the results were shown as Table 3
# [3] = system: mouse BaF3-FLT3-ITD-D835Y (stably expressing FLT3/ITD D835Y mutant activated kinase); test: Effects on proliferation of cells (Cell Titer-Glo), BaF3-FLT3-ITD-D835Y; type: cell-based; settings: incubated for 72 hours
# Text: as §1
# (9) mouse BaF3-FLT3-ITD-D835Y (stably expressing FLT3/ITD D835Y mutant activated kinase);
# as §2
# [4] = system: mouse TEL-FLT3-BaF3 (stably expressing FLT3 kinase); test: Effects on proliferation of cells (Cell Titer-Glo), TEL-FLT3-BaF3; type: cell-based; settings: TEL-FLT3-BaF3, incubated for 72 hours
# Text: as §1
# (8) mouse TEL-FLT3-BaF3 (stably expressing FLT3 kinase);
# as §2
# [5] = system: human acute myeloid leukemia cell strain U937 (expressing wild-type FLT3 gene); test: Effects on proliferation of tumor cells (Cell Titer-Glo), U937; type: cell-based
# Text: as §1
# (5) human acute myeloid leukemia cell strain U937 (expressing wild-type FLT3 gene);
# as §2
# [6] = system: mouse TEL-BaF3-FLT3/ITD (stably expressing FLT3/ITD mutant activated kinase); test: Effects on proliferation of cells (Cell Titer-Glo), TEL-BaF3-FLT3/ITD; type: cell-based; settings: incubated for 72 hours
# Text: as §1
# (6) mouse TEL-BaF3-FLT3/ITD (stably expressing FLT3/ITD mutant activated kinase);
# as §2
# FLT3 kinase = molecular target: T1, FLT3 kinase (Homo sapiens, UniProt P36888); test: Activity of inhibiting FLT3 kinase (fluorescein labeled peptide kinase assay); type: biochemical; settings: in vitro kinase assay, 28° C.
# T1 sequence (P36888 27-993): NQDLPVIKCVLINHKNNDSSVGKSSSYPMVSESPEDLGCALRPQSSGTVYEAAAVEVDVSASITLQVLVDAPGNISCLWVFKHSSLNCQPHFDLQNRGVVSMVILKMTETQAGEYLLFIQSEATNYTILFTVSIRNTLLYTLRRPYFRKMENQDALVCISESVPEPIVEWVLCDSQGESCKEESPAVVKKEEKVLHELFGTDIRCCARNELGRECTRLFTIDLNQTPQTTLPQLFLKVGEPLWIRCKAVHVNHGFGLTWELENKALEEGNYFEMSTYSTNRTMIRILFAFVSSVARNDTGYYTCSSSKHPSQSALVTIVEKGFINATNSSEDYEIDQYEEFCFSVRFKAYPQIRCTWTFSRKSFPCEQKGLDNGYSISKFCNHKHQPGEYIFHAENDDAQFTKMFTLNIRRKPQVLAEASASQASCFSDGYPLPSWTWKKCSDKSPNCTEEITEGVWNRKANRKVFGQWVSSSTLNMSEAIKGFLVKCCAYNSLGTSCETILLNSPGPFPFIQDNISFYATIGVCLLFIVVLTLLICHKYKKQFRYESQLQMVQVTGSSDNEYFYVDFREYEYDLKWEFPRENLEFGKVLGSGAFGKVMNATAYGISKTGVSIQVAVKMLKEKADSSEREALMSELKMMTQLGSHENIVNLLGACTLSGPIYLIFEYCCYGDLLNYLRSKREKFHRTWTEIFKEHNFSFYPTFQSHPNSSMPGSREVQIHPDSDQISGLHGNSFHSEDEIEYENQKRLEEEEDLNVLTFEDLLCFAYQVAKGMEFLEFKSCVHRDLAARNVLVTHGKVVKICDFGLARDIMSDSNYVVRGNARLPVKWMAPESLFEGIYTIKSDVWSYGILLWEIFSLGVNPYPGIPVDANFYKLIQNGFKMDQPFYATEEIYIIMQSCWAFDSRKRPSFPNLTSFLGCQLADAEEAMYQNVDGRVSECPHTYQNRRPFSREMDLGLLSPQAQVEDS
# Protocol: Activity of Inhibiting FLT3 Kinase
# 1. Preparation of 1 × Kinase Buffer and Termination Buffer:
# (1) MnCl2-free 1× kinase buffer: 50 mM HEPES, pH 7.5, 0.0015% Brij-35, 10 mM MgCl2, 2 mM DTT;
# (2) Termination buffer: 100 mM HEPES, pH 7.5, 0.015% Brij-35, 0.2% Coating Reagent #3, 50 mM EDTA.
# 2. Preparation of compounds for testing kinase: the compounds are diluted continuously.
# (1) the compound was diluted to 50 times the maximum final concentration with 100% DMSO. […] of the solution containing the compound at this concentration was transferred to one hole of 96-well plate;
# (2)10 concentrations of compounds were prepared by diluting 20 mL original solution with 60 mL DMSO;
# (3) […] solution of 100% DMSO was added into two empty holes as compound-free control and enzyme-free control; (4) a transitional plate was prepared, 10 mL compounds at different concentrations were transferred from the original plate to the transitional plate respectively, 90 mL 1× kinase buffer was added, and then mixed under oscillation for 10 minutes;
# (5) preparation of an experimental plate: 5 mL solution containing compounds was transferred from the hole of the transitional plate of the 96-well plate to the corresponding hole of 384-well plate.
# (1) Preparation of 2.5× enzyme solution: enzyme was added to the 1× kinase buffer;
# (2) Preparation of 2.5× peptide solution: a fluorescein labeled peptide and ATP were added to the 1× kinase buffer;
# (3) 10 mL 2.5× enzyme solution was added to an experimental 384-well plate containing the compound solution with a concentration of 10% containing 5 mL DMSO and incubated at room temperature for 10 minutes;
# (4) 10 mL 2.5× peptide solution was added to an experimental 384-well plate;
# (5) kinase reaction and termination: Incubation was carried out at 28° C. for certain time, 25 mL termination buffer was added to terminate the reaction.
# Data was read and collected.
# (1) detected data was copied and converted
# (2) data was converted to inhibitory rate
# Inhibitory rate=(Maximum Value−Sample Value)/(Maximum Value−Minimum Value)*100;
# wherein “Maximum Value” is the value of DMSO control; “Minimum Value” is the value of kinase-free control hole.
# (3) the data was input an analysis software to obtain IC50 value.
# [7] = system: human acute myeloid leukemia cell strain OCI-AML-3 (expressing FLT3A680V mutant gene); test: Effects on proliferation of tumor cells (Cell Titer-Glo), OCI-AML-3; type: cell-based; settings: OCI-AML-3, incubated for 72 hours
# Text: as §1
# (4) human acute myeloid leukemia cell strain OCI-AML-3 (expressing FLT3A680V mutant gene);
# as §2
# [8] = system: mouse BaF3-FLT3-ITD-F691L (stably expressing FLT3/ITD F691L mutant activated kinase); test: Effects on proliferation of cells (Cell Titer-Glo), BaF3-FLT3-ITD-F691L; type: cell-based; settings: incubated for 72 hours
# Text: as §1
# (10) mouse BaF3-FLT3-ITD-F691L (stably expressing FLT3/ITD F691L mutant activated kinase).
# as §2
# [9] = system: human acute monocytic leukemia cell strain MV4-11 (expressing FLT3/ITD mutant gene); test: Effects on proliferation of tumor cells (Cell Titer-Glo), MV4-11; type: cell-based; settings: MV4-11, incubated for 72 hours
# Text: as §1
# (1) human acute monocytic leukemia cell strain MV4-11 (expressing FLT3/ITD mutant gene);
# as §2
# [10] = system: mouse TEL-BaF3-FLT3-D835Y (stably expressing FLT3D835Y mutant activated kinase); test: Effects on proliferation of cells (Cell Titer-Glo), TEL-BaF3-FLT3-D835Y; type: cell-based; settings: incubated for 72 hours
# Text: as §1
# (7) mouse TEL-BaF3-FLT3-D835Y (stably expressing FLT3D835Y mutant activated kinase);
# as §2
# [11] = system: human acute myeloid leukemia cell strain MOLM-14 (expressing FLT3/ITD mutant gene and wild-type FLT3 gene); test: Effects on proliferation of tumor cells (Cell Titer-Glo), MOLM-14; type: cell-based; settings: MOLM-14, incubated for 72 hours
# Text: as §1
# (3) human acute myeloid leukemia cell strain MOLM-14 (expressing FLT3/ITD mutant gene and wild-type FLT3 gene);
# as §2
Compound,Inhibited Rate of Tumor (%) [1] [%],IC50 [2] [µM],IC50 [3] [µM],IC50 [4] [µM],"IC50 ([5]; U937, incubated for 72 hours) [µM]",IC50 [6] [µM],IC50 (FLT3 kinase) [nM],IC50 [7] [µM],IC50 [8] [µM],IC50 [9] [µM],IC50 [10] [µM],IC50 [11] [µM],other results
CS(=O)(=O)O.Nc1sc(-c2c(F)cccc2F)nc1C(=O)Nc1cncnc1OCC1CCNCC1 [Mesylate of compound of Formula (I)],74,0.45,0.55,0.05,7.42,0.02,28,0.06,0.77,0.43,0.31,0.13,–
Nc1sc(-c2c(F)cccc2F)nc1C(=O)Nc1cncnc1OCC1CCNCC1.O=S(=O)(O)O [Sulphate of compound of Formula (I)],68,0.23,0.23,0.05,3.56,0.04,28,0.21,0.56,0.23,0.22,0.22,–
"Nc1sc(-c2c(F)cccc2F)nc1C(=O)Nc1cncnc1OCC1CCNCC1 [Compound of Formula (I), 5-amino-2-(2,6-difluorophenyl)-N-(4-(piperidine-4-methoxy)pyrimidine-5-) thiazole-4-formamide]",66,–,–,–,–,–,40,–,–,–,–,–,"IC50 ([2]; Homo sapiens): 0.52 µM; IC50 ([3]; Mus musculus): 0.61 µM; IC50 ([4]; Mus musculus): 0.12 µM; IC50 ([5]; Homo sapiens, U-937, U937, incubated for 72 hours): ≥ 13.4 µM; IC50 ([6]; Mus musculus): 0.11 µM; IC50 ([7]; Homo sapiens): 0.34 µM; IC50 ([8]; Mus musculus): 0.93 µM; IC50 ([9]; Homo sapiens): 0.51 µM; IC50 ([10]; Mus musculus): 0.32 µM; IC50 ([11]; Homo sapiens): 0.27 µM"
Br.Nc1sc(-c2c(F)cccc2F)nc1C(=O)Nc1cncnc1OCC1CCNCC1 [Hydrobromide of compound of Formula (I)],66,0.51,0.66,0.16,4.66,0.02,39,0.11,0.76,0.42,0.31,0.13,–
CC(=O)O.Nc1sc(-c2c(F)cccc2F)nc1C(=O)Nc1cncnc1OCC1CCNCC1 [Acetate of compound of Formula (I)],77,0.43,0.53,0.03,2.09,0.02,27,0.32,0.94,0.41,0.32,0.12,–
CC(O)C(=O)O.Nc1sc(-c2c(F)cccc2F)nc1C(=O)Nc1cncnc1OCC1CCNCC1 [Lactate of compound of Formula (I)],71,0.28,0.34,0.06,9.05,0.04,25,0.08,0.64,0.34,0.13,0.31,–
Cl.Nc1sc(-c2c(F)cccc2F)nc1C(=O)Nc1cncnc1OCC1CCNCC1 [Hydrochloride salt of compound of Formula (I)],86,0.12,0.32,0.03,6.21,0.02,15,0.05,0.45,0.13,0.21,0.08,–
